We go through four molecules from patent US20210030650A1, “USE OF A NOVEL COMPOSITION FOR PREVENTING OR SLOWING DOWN THE APPEARANCE OF UNSIGHTLY SIGNS RELATING TO THE PRESENCE OF EXCESS SEBUM” (SOCIETE D'EXPLOITATION DE PRODUITS POUR LES INDUSTRIES …, priority 2018, published 2021).

Assay [1] has as its system sebocytes of the SEBO662AR line. Kind of assay: Overproduction of lipids by testosterone-stimulated sebocytes (Bodipy lipid droplet imaging, standardized by nuclei count). It counts as cell-based. From the text:
The imbalance in the cutaneous microbiota occurs in particular when the proliferation of Propionibacterium acnes is observed. In this case also, Propionibacterium acnes induces inflammation of the skin, on the one hand by inducing the overproduction of lipids by sebocytes and, on the other hand, by producing a lipase which converts triglycerides into free fatty acids, which are irritating and chemotactic for neutrophils.
The effect of the composition (C1A) on the overproduction of lipids was studied on sebocytes of the SEBO662AR line (Bioalternatives line) sensitive to stimuli, such as testosterone, to produce lipids.
The sebocytes were first of all treated for 4 hours with the composition to be tested (or a positive reference). The testosterone was then added for 7 days to the culture medium, with renewal of the treatments and of the stimulation after 3 days. The formation of lipid droplets was detected by imaging using the Bodipy® fluorescent probe and the results were standardized by counting the nuclei with Hoechst staining.
The values are expressed as means+/−sem [standard error of the mean=standard deviation/root (number of values)].
% stimulation=100×[mean (cells+treatment)/mean (cells stimulated with testosterone)]
% inhibition=100×[mean (cells+treatment)−mean (cells stimulated with testosterone)/mean (untreated cells)−mean (cells stimulated with testosterone)]

A further assay relates to lipase. Kind of assay: Antilipase activity, in tubo method (1,2-diglyceride to glycerol, absorbance at 570 nm). It counts as biochemical. The conditions noted are these: for % inhibition of the lipase: Table 11 experiment. The procedure: This involves studying the ability of a composition to […] and regulate the activity of the lipase enzyme by an in tubo method, said enzyme having an inflammatory action.
The samples in the evaluation test are placed in tubo in the presence of lipase and 1,2-diglyceride and the absorbance of the samples is measured with a spectrophotometer at the wavelength 570 nm as soon as they are prepared and then after 60 minutes of incubation at 37° C., under the same spectral conditions. By virtue of a range of glycerol, the lipase activity of the samples can be calculated, as well as the percentage of inhibition, according to the following formulae:
Lipase activity=(amount of glycerol formed between 0 and 60 minutes)/(60 minutes×sample volume)
Percentage of inhibition=100×[(lipase activity of the control group)−(lipase activity of the test product)]/(lipase activity of the control group).

The mark [2] stands for this setting: Table 9, 1 nM testosterone, 0.006% compound.
Where [3] appears, read: Table 9, 1 nM testosterone, 0.012% compound.

Where two headings read alike, the source gives them in different places.

Regarding `O=C(O)CC(O)C(=O)OC1(C(=O)O)CC(OC(=O)C=Cc2ccc(O)c(O)c2)C(OC(=O)C=Cc2ccc(O)c(O)c2)C(OC(=O)C=Cc2ccc(O)c(O)c2)C1` (stereo not drawn) [Compound of formula (Ia), 1-O-Maloyl-3,4,5-tri-O-caffeoylquinic acid], the “Lipids, % change vs testosterone-stimulated cells” value in assay [1] (Table 9, 1 nM testosterone, 0.0012% compound) was 21; in assay [1] (setting [2]), −34; in assay [1] (setting [3]) it was −29. Further, the “Lipids, % inhibition” value was determined as 38% in assay [1] (setting [2]) and 32% in assay [1] (setting [3]). Also, the Lipase activity is recorded as 4.65 +/− 0.03 mU/ml in the assay with lipase (Table 11, 0.00012% by weight, control 4.72); 4.15 +/− 0.03 mU/ml in the assay on lipase (Table 11, 0.00024% by weight, control 4.72); 2.16 +/− 0.07 mU/ml with lipase (Table 11, 0.0006% by weight, control 4.72); 1.02 +/− 0.01 mU/ml with lipase (Table 11, 0.0012% by weight, control 4.72). Moreover, the results for the “% inhibition of the lipase” value with lipase (0.0006% by weight) and with lipase (0.0012% by weight) were 54% and 78%, respectively.

In the case of `CC(O)CO` (stereo not drawn) [Propylene Glycol], the Lipase activity with lipase (Table 10, product at 1% by weight, 60 minutes at 37° C., control 4.21) is given as 6.40 +/− 0.05 mU/m1.

For the molecule `O=C1O[C@H]([C@@H](O)CO)C(O)=C1O` [Vitamin C, reference compound], the Lipase activity is 2.11 +/− 0.01 mU/m1 in the assay on lipase (Table 10, positive reference, concentration not given, 60 minutes at 37° C., control 4.21) and 1.36 +/− 0.01 mU/ml with lipase (Table 11, positive reference, concentration not given, control 4.72).

With `C[C@]12C=CC(=O)N[C@@H]1CC[C@@H]1[C@@H]2CC[C@]2(C)[C@@H](C(=O)Nc3cc(C(F)(F)F)ccc3C(F)(F)F)CC[C@@H]12` [dutasteride, reference compound], the inhibition at 1 µM in assay [1] (Table 8, cells stimulated with 1 nM testosterone, 1 μM dutasteride, read-out: Lipids (fluorescence intensity)/number of cells, % inhibition) came out at 113%; in assay [1] (Table 9, 1 nM testosterone, 1 μM dutasteride, read-out: Lipids, % inhibition), 91%. For the same molecule, the “Lipids (fluorescence intensity)/number of cells, % stimulation” value in assay [1] (Table 8, cells stimulated with 1 nM testosterone, 1 μM dutasteride, stimulated untreated cells = 100) came out at 22%. Further, the “Lipids, % change vs testosterone-stimulated cells” value in assay [1] (Table 9, 1 nM testosterone, 1 μM dutasteride) was −82.
